≈ marks a conversion by molar mass, not a printed value. Read-outs that look alike come from different tables or passages of the source. Residues, ends and D or L forms follow the SMILES beside them. *: point of attachment. βNA = c1ccc2cc(N*)ccc2c1
Legend:
in vitro [1] = settings: Klebsiella pneumoniae, not told
[2] = ref supplement refs 1-13 as given per antibiotic; cited from earlier work
in vitro [3] = settings: Klebsiella pneumoniae, not told; remark: listed apart in the source
[4] = system: E. cloacae isolate (EC3800); assay: agar MIC according to CLSI guidelines; assay type: cell-based, Enterobacter cloacae
[5] = system: K. pneumoniae isolate (KP3800); assay: agar MIC according to CLSI guidelines; assay type: cell-based, Klebsiella pneumoniae
[6] = critically ill patients; ref supplement refs 1-13 as given per antibiotic; cited from earlier work
E. cloacae complex = settings: cited from earlier work
in vitro [7] = settings: Enterobacter cloacae, not told, pH 7, Avg OM permeability coefficient (nm/s) ± SD
P. aeruginosa = settings: not told; cited from earlier work
[8] = basic group carrying the positive charge; no reference given; cited from earlier work
[9] = system: polymyxin-susceptible E. cloacae isolate EC3800; settings: for OM permeability of imipenem, fold faster than meropenem: E. cloacae EC3800
[10] = system: polymyxin-resistant K. pneumoniae isolate KP3800; settings: for OM permeability coefficient, fold smaller in KP3800 compared to EC3800: KP3800 vs EC3800
[11] = pH 7, Avg OM permeability coefficient (nm/s) ± SD, Cassette K. pneumoniae, efflux: with 25 mg/liter PAβN, two biological replicates
[12] = pH 7, Avg OM permeability coefficient (nm/s) ± SD, Cassette K. pneumoniae, three biological replicates
[13] = pH 7, Avg OM permeability coefficient (nm/s) ± SD, Discrete K. pneumoniae, three biological replicates
[14] = Cassette E. cloacae, efflux: with 25 mg/liter PAβN, two biological replicates
[15] = Cassette E. cloacae, three biological replicates
[16] = Discrete E. cloacae, three biological replicates

C[C@H]1[C@H](NC(=O)/C(=N\OC(C)(C)C(=O)O)c2csc(N)n2)C(=O)N1S(=O)(=O)O [Aztreonam, aztreonam]
Papp (in vitro [1]): 0.74 ×10⁻⁶ cm/s
Fraction bound in plasma (%) [2]: 51.5%
Papp (in vitro [3]; [11]): < 0.3 ×10⁻⁶ cm/s
Papp (in vitro [3]; [12]): < 0.3 ×10⁻⁶ cm/s
Papp (in vitro [3]; [13]): 0.864 ± 0.846 ×10⁻⁶ cm/s

CO/N=C(\C(=O)N[C@@H]1C(=O)N2C(C(=O)[O-])=C(C[N+]3(C)CCCC3)CS[C@H]12)c1csc(N)n1 [Cefepime, cefepime]
MIC ([4]; Enterobacter cloacae): 16 µg/mL (≈ 33.3 µM)
MIC ([5]; Klebsiella pneumoniae): 128 µg/mL (≈ 266 µM)
Papp (in vitro [3]; [11]): < 0.3 ×10⁻⁶ cm/s
Papp (in vitro [3]; [12]): < 0.3 ×10⁻⁶ cm/s
Papp (in vitro [3]; [13]): 1.36 ± 0.926 ×10⁻⁶ cm/s

CC(C)(O/N=C(\C(=O)N[C@@H]1C(=O)N2C(C(=O)[O-])=C(C[n+]3ccccc3)CS[C@H]12)c1csc(N)n1)C(=O)O [Ceftazidime, ceftazidime]
Mean Clearance [6]: 9.22 L/h
permeability coefficients (E. cloacae complex): 0.1 ×10⁻⁶ cm/s
MIC ([4]; Enterobacter cloacae): 16 µg/mL (≈ 29.3 µM)
MIC ([5]; Klebsiella pneumoniae): 64 µg/mL (≈ 117 µM)
Papp (in vitro [3]; [11]): < 0.3 ×10⁻⁶ cm/s
Papp (in vitro [3]; [12]): < 0.3 ×10⁻⁶ cm/s
Papp (in vitro [3]; [13]): < 0.3 ×10⁻⁶ cm/s
Papp (in vitro [3]; pH 7, Outer membrane permeability coefficients (nm/s), KP3800, discrete assay, average ± SD, three replicates (Table S2)): < 0.3 ×10⁻⁶ cm/s
Papp (in vitro [3]; pH 7, permeability coefficient, KP3800, degradation too slow to be reliably determined in intact bacteria, 'likely'): < 0.3 ×10⁻⁶ cm/s

C[C@@H](O)[C@H]1C(=O)N2C(C(=O)O)=C(SCCN=CN)C[C@H]12 [Imipenem, imipenem]
Mean Clearance [6]: 12.4 L/h
Papp (in vitro [7]; [14]): 393 ×10⁻⁶ cm/s
Papp (in vitro [7]; [15]): 577 ×10⁻⁶ cm/s
Papp (in vitro [7]; [16]): 666 ×10⁻⁶ cm/s
OM permeability of imipenem over meropenem, fold faster (P. aeruginosa): 2.74 fold
pKa2 [8]: 10.6
MIC ([4]; Enterobacter cloacae): 4 µg/mL (≈ 13.4 µM)
Fraction bound in plasma (%) [2]: 9.1%
OM permeability of imipenem, fold faster than meropenem [9]: at least 7 fold
OM permeability of imipenem, fold faster than meropenem ([9]; listed as imipenem): ~7 fold
OM permeability of imipenem, fold faster than aztreonam ([9]; EC3800): ~2,000 fold
OM permeability of imipenem, fold faster than cefepime ([9]; EC3800): 258 fold
MIC ([5]; Klebsiella pneumoniae): 128 µg/mL (≈ 428 µM)
OM permeability coefficient, fold smaller in KP3800 compared to EC3800 [10]: approximately 5 fold
Papp (in vitro [3]; [11]): 72.3 ± 12.4 ×10⁻⁶ cm/s
Papp (in vitro [3]; [12]): 90.7 ± 6.57 ×10⁻⁶ cm/s
Papp (in vitro [3]; [13]): 204 ×10⁻⁶ cm/s

C[C@@H](O)[C@H]1C(=O)N2C(C(=O)O)=C(S[C@@H]3CN[C@H](C(=O)N(C)C)C3)[C@H](C)[C@H]12 [Meropenem, meropenem]
Mean Clearance [6]: 10.4 L/h
Papp (in vitro [7]; [14]): 40.2 ± 6.98 ×10⁻⁶ cm/s
Papp (in vitro [7]; [15]): 84.3 ± 29.2 ×10⁻⁶ cm/s
Papp (in vitro [7]; [16]): 72.9 ± 15.5 ×10⁻⁶ cm/s
pKa2 [8]: 8.3
MIC ([4]; Enterobacter cloacae): 4 µg/mL (≈ 10.4 µM)
MIC ([5]; Klebsiella pneumoniae): > 256 µg/mL
OM permeability coefficient, fold smaller in KP3800 compared to EC3800 [10]: ~10 fold
Papp (in vitro [3]; [11]): 5.75 ± 2.17 ×10⁻⁶ cm/s
Papp (in vitro [3]; [12]): 9.07 ± 0.689 ×10⁻⁶ cm/s
Papp (in vitro [3]; [13]): 8.33 ± 0.917 ×10⁻⁶ cm/s

N=C(N)NCCC[C@H](NC(=O)[C@@H](N)Cc1ccccc1)C(=O)Nc1ccc2ccccc2c1 [PAβN, phenylalanine-arginine β-naphthylamide] (H-Phe-Arg-βNA)
effect of efflux pump inhibitor on OM permeability estimates of the β-lactams ([9]; EC3800, PAβN 25 mg/liter, cassette assay): did not significantly affect
effect of efflux pump inhibitor on OM permeability estimates of the β-lactams ([10]; KP3800, PAβN 25 mg/liter, cassette assay): did not significantly affect

polymyxin
MIC ([4]; EC3800): 0.5 µg/mL
MIC ([5]; KP3800): 64 µg/mL

— article PMC7018653 (mBio, 2020)
